Measurements from PMC10729961, “Putative purine nucleoside interacting residues in the malaria parasite purine uptake transporter PfENT1 are critical for transporter function” (PLOS ONE, 2023).

What was measured:
Assay in all cases: [3H]adenosine uptake assay, competition with cold uridine
Format in all cases: cell-based
[1] = molecular target: T1, PfENT1 V52C (Plasmodium falciparum, UniProt Q8IDM6, V52C)
T1 construct: expressed in transfected cells; host or cells: purine auxotrophic yeast (ade2Δ, fui1Δ), pCM189 episomal plasmid
T1 sequence (Q8IDM6 whole entry V52C): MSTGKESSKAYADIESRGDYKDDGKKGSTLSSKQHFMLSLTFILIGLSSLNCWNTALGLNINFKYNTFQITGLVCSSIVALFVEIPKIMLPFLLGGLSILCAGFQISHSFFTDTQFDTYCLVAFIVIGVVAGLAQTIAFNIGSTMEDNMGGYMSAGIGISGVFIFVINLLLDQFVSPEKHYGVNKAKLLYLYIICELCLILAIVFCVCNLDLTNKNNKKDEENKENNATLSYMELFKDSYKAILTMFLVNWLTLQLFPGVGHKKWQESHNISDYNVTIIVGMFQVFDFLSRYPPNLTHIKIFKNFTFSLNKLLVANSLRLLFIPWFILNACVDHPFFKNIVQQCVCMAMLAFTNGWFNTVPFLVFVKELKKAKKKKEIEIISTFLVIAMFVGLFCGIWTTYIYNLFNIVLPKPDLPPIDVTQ
Experimental: (§1) The radiolabeled uptake assay measures the ability of an unlabeled purine or pyrimidine substrate to inhibit the uptake of radiolabeled substrate into yeast via PfENT1 as previously described. Yeast strains containing PfENT1 (mutant or WT) were grown overnight in SDM media to a final OD600 between 0.2 and 0.5. Purine auxotrophic yeast used as a negative control were grown in YPD media. Yeast were spun down and washed three times with 15 mL phosphate buffered saline (PBS; 137 mM NaCl, 2.7 mM KCl, 10 mM KH2PO4, 10 mM Na2HPO4, pH 7.4). The final volume of yeast in PBS varied but it was diluted to a final OD600 = 0.2. […] For the dilution series, unlabeled purine/pyrimidine (Fischer Scientific Cat. #12-565-501) with a starting concentration of 25 mM was serially diluted 1:3 in PBS for a final concentration range of 3.28 nM to 6.25 mM. Yeast were incubated with radioactive substrate and the unlabeled purine/pyrimidine for 15 min. […] This ensured that competition only occurred at the transporter and not at cytoplasmic metabolic enzymes, because those are different for purines and pyrimidines. For determination of minimal and maximal uptake, yeast strains were incubated without radioactivity or with radioactivity but no cold substrate competition, respectively. […] Mats were allowed to air dry and sealed in sample bags with 5 mL of BetaPlate Scint scintillant cocktail (Perkin Elmer Cat. #1205–4401). The amount of radioactivity in each well was measured by liquid scintillation counting using a 1450 MicroBeta TriLux (Perkin Elmer). The counts per minute (cpm) were recorded and technical triplicates were averaged. IC50 values were calculated, and statistical analysis was performed using GraphPad/Prism9 software. Each experiment was repeated at least three times on separate days.
(§2) Statistical significance was calculated using one-way analysis of variance (ANOVA) with GraphPad/Prism9 software. IC50 values were calculated using the non-linear regression dose-response inhibition log(inhibitor) vs normalized response program. Cpm data was background subtracted by the cpm in yeast expressing WT PfENT1 in cold purine/pyrimidine. Data was normalized to the highest value for each mutant.

[2] = molecular target: T2, PfENT1 R291C (Plasmodium falciparum, UniProt Q8IDM6, R291C); settings: cold uridine vs [3H]adenosine uptake, 15 min
T2 construct: expressed in transfected cells; host or cells: purine auxotrophic Saccharomyces cerevisiae (ade2Δ, fui1Δ), pCM189 episomal plasmid
Experimental: as §1, §2

[3] = molecular target: T3, WT PfENT1 (Plasmodium falciparum, UniProt Q8IDM6)
T3 construct: expressed in transfected cells; host or cells: purine auxotrophic yeast (ade2Δ, fui1Δ), pCM189 episomal plasmid
Experimental: as §1, §2

[4] = molecular target: T4, PfENT1 L289C (Plasmodium falciparum, UniProt Q8IDM6, L289C)
T4 construct: expressed in transfected cells; host or cells: purine auxotrophic Saccharomyces cerevisiae (ade2Δ, fui1Δ), pCM189 episomal plasmid
T4 sequence (Q8IDM6 whole entry L289C): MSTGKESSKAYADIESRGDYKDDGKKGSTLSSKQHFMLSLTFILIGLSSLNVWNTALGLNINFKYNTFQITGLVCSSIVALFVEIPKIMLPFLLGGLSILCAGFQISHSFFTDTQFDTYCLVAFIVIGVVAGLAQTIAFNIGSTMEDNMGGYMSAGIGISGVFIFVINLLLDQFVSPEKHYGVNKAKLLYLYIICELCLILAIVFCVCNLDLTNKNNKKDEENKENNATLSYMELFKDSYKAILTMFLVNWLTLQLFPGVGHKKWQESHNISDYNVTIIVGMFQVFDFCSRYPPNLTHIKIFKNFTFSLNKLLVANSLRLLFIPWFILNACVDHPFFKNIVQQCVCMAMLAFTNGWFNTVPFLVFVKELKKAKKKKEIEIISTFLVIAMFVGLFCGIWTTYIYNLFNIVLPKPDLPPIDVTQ
Experimental: as §1, §2

[5] = molecular target: T5, PfENT1 T136C (Plasmodium falciparum, UniProt Q8IDM6, T136C)
T5 construct: expressed in transfected cells; host or cells: purine auxotrophic yeast (ade2Δ, fui1Δ), pCM189 episomal plasmid
T5 sequence (Q8IDM6 whole entry T136C): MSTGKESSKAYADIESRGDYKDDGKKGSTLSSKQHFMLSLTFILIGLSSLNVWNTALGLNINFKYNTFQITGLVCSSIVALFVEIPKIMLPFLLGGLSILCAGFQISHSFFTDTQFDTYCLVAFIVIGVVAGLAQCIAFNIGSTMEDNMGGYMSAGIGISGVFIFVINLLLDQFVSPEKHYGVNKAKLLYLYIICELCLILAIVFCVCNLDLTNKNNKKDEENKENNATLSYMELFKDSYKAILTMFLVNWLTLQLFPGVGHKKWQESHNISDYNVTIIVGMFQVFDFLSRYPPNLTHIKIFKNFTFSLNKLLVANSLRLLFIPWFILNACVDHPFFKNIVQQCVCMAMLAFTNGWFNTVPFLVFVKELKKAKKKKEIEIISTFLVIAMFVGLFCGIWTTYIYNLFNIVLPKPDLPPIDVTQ
Experimental: as §1, §2

[6] = molecular target: T6, PfENT1 S290C (Plasmodium falciparum, UniProt Q8IDM6, S290C); settings: cold uridine vs [3H]adenosine uptake, 15 min
T6 construct: expressed in transfected cells; host or cells: purine auxotrophic Saccharomyces cerevisiae (ade2Δ, fui1Δ), pCM189 episomal plasmid
Experimental: as §1, §2

[7] = molecular target: T7, PfENT1 D287C (Plasmodium falciparum, UniProt Q8IDM6, D287C); settings: cold uridine vs [3H]adenosine uptake, 15 min
T7 construct: expressed in transfected cells; host or cells: purine auxotrophic Saccharomyces cerevisiae (ade2Δ, fui1Δ), pCM189 episomal plasmid
Experimental: as §1, §2

[8] = molecular target: T8, PfENT1 N51C (Plasmodium falciparum, UniProt Q8IDM6, N51C)
T8 construct: expressed in transfected cells; host or cells: purine auxotrophic yeast (ade2Δ, fui1Δ), pCM189 episomal plasmid
T8 sequence (Q8IDM6 whole entry N51C): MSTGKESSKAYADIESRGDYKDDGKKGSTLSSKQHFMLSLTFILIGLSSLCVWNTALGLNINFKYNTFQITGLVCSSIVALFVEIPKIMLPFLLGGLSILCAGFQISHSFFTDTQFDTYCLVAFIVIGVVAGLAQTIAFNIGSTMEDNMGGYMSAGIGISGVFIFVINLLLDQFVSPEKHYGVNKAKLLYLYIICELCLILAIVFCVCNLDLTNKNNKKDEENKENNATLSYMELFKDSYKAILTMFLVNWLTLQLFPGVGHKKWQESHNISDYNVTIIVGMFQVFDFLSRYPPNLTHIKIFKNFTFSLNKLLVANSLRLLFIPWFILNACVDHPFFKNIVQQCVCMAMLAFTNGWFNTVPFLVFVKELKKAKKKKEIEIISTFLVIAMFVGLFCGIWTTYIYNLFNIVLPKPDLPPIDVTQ
Experimental: as §1, §2

[9] = molecular target: T9, PfENT1 F286C (Plasmodium falciparum, UniProt Q8IDM6, F286C)
T9 construct: expressed in transfected cells; host or cells: purine auxotrophic yeast (ade2Δ, fui1Δ), pCM189 episomal plasmid
T9 sequence (Q8IDM6 whole entry F286C): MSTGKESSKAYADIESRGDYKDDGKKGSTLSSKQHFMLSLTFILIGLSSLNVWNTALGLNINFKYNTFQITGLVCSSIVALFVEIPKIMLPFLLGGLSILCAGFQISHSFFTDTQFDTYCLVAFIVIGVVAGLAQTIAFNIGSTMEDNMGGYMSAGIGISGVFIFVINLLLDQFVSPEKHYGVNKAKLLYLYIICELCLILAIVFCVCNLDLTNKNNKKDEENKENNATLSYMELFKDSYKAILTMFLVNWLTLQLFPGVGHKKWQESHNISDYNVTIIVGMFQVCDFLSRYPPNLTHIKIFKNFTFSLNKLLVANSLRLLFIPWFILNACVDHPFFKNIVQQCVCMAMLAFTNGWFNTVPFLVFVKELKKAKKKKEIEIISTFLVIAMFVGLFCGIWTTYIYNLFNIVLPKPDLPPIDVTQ
Experimental: as §1, §2

[10] = molecular target: T10, PfENT1 S49C (Plasmodium falciparum, UniProt Q8IDM6, S49C)
T10 construct: expressed in transfected cells; host or cells: purine auxotrophic yeast (ade2Δ, fui1Δ), pCM189 episomal plasmid
T10 sequence (Q8IDM6 whole entry S49C): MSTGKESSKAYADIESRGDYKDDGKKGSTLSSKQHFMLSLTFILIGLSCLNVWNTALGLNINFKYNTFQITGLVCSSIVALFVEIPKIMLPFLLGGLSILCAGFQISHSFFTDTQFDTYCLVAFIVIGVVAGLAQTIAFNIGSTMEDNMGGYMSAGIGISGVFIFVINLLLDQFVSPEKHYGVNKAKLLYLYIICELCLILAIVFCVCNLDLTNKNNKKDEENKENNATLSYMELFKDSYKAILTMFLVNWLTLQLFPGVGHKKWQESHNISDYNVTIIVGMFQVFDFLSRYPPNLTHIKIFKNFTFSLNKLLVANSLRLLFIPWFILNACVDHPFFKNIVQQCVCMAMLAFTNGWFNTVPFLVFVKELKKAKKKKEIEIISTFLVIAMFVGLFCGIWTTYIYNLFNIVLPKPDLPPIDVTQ
Experimental: as §1, §2

[11] = molecular target: T11, PfENT1 A134C (Plasmodium falciparum, UniProt Q8IDM6, A134C)
T11 construct: expressed in transfected cells; host or cells: purine auxotrophic yeast (ade2Δ, fui1Δ), pCM189 episomal plasmid
T11 sequence (Q8IDM6 whole entry A134C): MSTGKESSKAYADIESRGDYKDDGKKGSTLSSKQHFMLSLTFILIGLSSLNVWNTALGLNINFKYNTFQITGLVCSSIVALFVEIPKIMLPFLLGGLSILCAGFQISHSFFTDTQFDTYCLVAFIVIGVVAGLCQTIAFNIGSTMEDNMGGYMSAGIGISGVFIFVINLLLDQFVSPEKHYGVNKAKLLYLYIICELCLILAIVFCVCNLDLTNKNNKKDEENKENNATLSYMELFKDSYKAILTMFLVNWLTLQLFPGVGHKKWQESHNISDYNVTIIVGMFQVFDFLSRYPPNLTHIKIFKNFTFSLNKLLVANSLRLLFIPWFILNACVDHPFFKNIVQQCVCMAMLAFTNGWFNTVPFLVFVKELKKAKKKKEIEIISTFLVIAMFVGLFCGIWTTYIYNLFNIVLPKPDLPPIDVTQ
Experimental: as §1, §2

[12] = molecular target: T12, PfENT1 F288C (Plasmodium falciparum, UniProt Q8IDM6, F288C)
T12 construct: expressed in transfected cells; host or cells: purine auxotrophic Saccharomyces cerevisiae (ade2Δ, fui1Δ), pCM189 episomal plasmid
T12 sequence (Q8IDM6 whole entry F288C): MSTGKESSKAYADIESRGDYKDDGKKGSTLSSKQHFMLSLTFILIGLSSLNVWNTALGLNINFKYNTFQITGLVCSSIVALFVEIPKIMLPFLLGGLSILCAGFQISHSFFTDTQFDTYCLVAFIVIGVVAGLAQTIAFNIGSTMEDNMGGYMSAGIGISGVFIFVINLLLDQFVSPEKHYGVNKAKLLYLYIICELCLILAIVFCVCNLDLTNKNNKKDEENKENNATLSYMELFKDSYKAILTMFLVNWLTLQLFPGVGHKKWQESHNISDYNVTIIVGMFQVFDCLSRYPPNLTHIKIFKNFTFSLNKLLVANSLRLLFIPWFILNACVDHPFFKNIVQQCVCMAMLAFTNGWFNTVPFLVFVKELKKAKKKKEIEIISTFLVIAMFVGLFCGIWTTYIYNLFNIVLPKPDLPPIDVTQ
Experimental: as §1, §2

[13] = molecular target: T13, PfENT1 Q135C (Plasmodium falciparum, UniProt Q8IDM6, Q135C); settings: cold uridine vs [3H]adenosine uptake, 15 min
T13 construct: expressed in transfected cells; host or cells: purine auxotrophic yeast (ade2Δ, fui1Δ), pCM189 episomal plasmid
Experimental: as §1, §2

[14] = system: purine auxotrophic yeast (ade2Δ, fui1Δ); settings: ade2Δ strain; cold uridine vs [3H]adenosine uptake, 15 min
Experimental: as §1, §2

[15] = molecular target: T14, PfENT1 L50C (Plasmodium falciparum, UniProt Q8IDM6, L50C); settings: cold uridine vs [3H]adenosine uptake, 15 min
T14 construct: expressed in transfected cells; host or cells: purine auxotrophic yeast (ade2Δ, fui1Δ), pCM189 episomal plasmid
T14 sequence (Q8IDM6 whole entry L50C): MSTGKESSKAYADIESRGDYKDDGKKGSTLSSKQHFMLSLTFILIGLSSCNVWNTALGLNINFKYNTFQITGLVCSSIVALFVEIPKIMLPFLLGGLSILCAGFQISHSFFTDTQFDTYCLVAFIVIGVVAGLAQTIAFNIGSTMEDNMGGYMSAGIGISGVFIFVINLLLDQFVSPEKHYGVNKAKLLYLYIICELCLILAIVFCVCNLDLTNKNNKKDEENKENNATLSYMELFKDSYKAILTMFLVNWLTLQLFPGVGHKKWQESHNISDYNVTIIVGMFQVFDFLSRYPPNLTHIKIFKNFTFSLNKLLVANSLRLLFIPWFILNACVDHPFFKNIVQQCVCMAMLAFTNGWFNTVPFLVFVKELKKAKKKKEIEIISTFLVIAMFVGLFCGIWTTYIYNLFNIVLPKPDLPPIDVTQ
Experimental: as §1, §2

[16] = molecular target: T15, PfENT1 S48C (Plasmodium falciparum, UniProt Q8IDM6, S48C)
T15 construct: expressed in transfected cells; host or cells: purine auxotrophic yeast (ade2Δ, fui1Δ), pCM189 episomal plasmid
T15 sequence (Q8IDM6 whole entry S48C): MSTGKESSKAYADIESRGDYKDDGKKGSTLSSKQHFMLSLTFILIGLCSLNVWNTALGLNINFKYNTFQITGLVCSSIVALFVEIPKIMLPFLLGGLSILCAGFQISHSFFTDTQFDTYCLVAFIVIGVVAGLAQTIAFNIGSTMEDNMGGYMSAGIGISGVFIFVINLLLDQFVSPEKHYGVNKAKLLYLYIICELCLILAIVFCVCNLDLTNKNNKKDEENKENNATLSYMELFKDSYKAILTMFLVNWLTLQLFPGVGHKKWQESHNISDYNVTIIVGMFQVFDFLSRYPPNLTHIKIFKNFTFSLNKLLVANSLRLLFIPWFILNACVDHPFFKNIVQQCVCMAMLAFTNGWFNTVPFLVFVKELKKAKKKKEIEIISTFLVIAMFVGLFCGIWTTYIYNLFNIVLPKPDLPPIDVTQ
Experimental: as §1, §2

[17] = molecular target: T16, PfENT1 W53C (Plasmodium falciparum, UniProt Q8IDM6, W53C); settings: cold uridine vs [3H]adenosine uptake, 15 min
T16 construct: expressed in transfected cells; host or cells: purine auxotrophic yeast (ade2Δ, fui1Δ), pCM189 episomal plasmid
Experimental: as §1, §2

[18] = molecular target: T17, PfENT1 I137C (Plasmodium falciparum, UniProt Q8IDM6, I137C)
T17 construct: expressed in transfected cells; host or cells: purine auxotrophic yeast (ade2Δ, fui1Δ), pCM189 episomal plasmid
T17 sequence (Q8IDM6 whole entry I137C): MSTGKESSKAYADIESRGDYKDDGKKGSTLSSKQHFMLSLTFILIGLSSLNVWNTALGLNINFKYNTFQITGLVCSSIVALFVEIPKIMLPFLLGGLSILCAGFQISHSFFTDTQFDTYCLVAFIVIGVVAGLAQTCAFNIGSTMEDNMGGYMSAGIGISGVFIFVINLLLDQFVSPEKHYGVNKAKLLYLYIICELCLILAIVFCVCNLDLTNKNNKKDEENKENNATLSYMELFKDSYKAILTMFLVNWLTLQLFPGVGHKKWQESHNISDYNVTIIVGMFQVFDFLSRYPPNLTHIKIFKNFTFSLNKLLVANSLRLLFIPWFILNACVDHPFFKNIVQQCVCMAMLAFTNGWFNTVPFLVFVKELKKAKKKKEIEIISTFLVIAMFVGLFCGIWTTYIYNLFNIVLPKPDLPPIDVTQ
Experimental: as §1, §2

O=c1ccn([C@@H]2O[C@H](CO)[C@@H](O)[C@H]2O)c(=O)[nH]1 [Uridine, uridine]
IC50 [1]: 2820 ± 1440 µM | Mutant/WT Ratio Uridine ([1]; V52C, ratio of IC50 values): 2.83 | Average IC50 (μM) Uridine [2]: no uptake | IC50 [3]: 997 ± 90 µM | IC50 [4]: 905 ± 164 µM | Mutant/WT Ratio Uridine ([4]; L289C, ratio of IC50 values): 0.91 | IC50 [5]: 786 ± 87 µM | Mutant/WT Ratio Uridine ([5]; T136C, ratio of IC50 values): 0.79 | Average IC50 (μM) Uridine [6]: no uptake | Average IC50 (μM) Uridine [7]: no uptake | IC50 [8]: 30.9 ± 1 µM | Mutant/WT Ratio Uridine ([8]; N51C, ratio of IC50 values): 0.031 | IC50 [9]: 1210 ± 139 µM | Mutant/WT Ratio Uridine ([9]; F286C, ratio of IC50 values): 1.21 | IC50 [10]: 1060 ± 30 µM | Mutant/WT Ratio Uridine ([10]; S49C, ratio of IC50 values): 1.06 | IC50 [11]: 1020 ± 207 µM | Mutant/WT Ratio Uridine ([11]; A134C, ratio of IC50 values): 1.02 | IC50 [12]: 850 ± 138 µM | Mutant/WT Ratio Uridine ([12]; F288C, ratio of IC50 values): 0.85 | Average IC50 (μM) Uridine [13]: no uptake | Average IC50 (μM) Uridine [14]: no uptake | Average IC50 (μM) Uridine [15]: no uptake | IC50 [16]: 801 ± 46 µM | Mutant/WT Ratio Uridine ([16]; S48C, ratio of IC50 values): 0.8 | Average IC50 (μM) Uridine [17]: no uptake | IC50 [18]: 904 ± 21 µM | Mutant/WT Ratio Uridine ([18]; I137C, ratio of IC50 values): 0.91
